Read-outs that look alike come from different tables or passages of the source. Where only a bound is given, the exact number is not on record here.

A short description of one data set: in vivo. The note with it: mouse, po, mice, orally administered, read-out: acute toxicity (LD50).
Another data set relates to stress ulcer in rat. The data set can be described thus: Inhibitory effect on stress ulcer in rat (restraint and water-immersion stress method). It counts as in vivo. Particulars: read-out: Inhibitory Effect (%). The protocol:
INHIBITORY EFFECT ON STRESS ULCER IN RAT
The compounds of this invention were administered orally to 7 rats weighing about 300 g in each group. After 30 minutes, they were immobilized and immersed in water at 21° C. for 7 hours to prepare the stress ulcer.

For data set [1] the following is noted: disclosed in Japanese Patent Application (OPI) No. 18947/81; cited from earlier work.
[2] abbreviates: 50 mg/kg, oral, rat, 30 minutes before immobilization and immersion in water at 21° C. for 7 hours, *P < 0.05, **P < 0.01.
Where [3] appears, read: 100 mg/kg, oral, rat, 30 minutes before immobilization and immersion in water at 21° C. for 7 hours, *P < 0.05, **P < 0.01.
Setting [4] is: 200 mg/kg, oral, rat, 30 minutes before immobilization and immersion in water at 21° C. for 7 hours, *P < 0.05, **P < 0.01.

As to `COc1ccc(CCNC(=O)CN(CS(=O)(=O)[O-])c2cccc(C(N)=O)c2)cc1OC.[Na+]`, the LD50 in “in vivo” is above 2000 mg/kg. Moreover, in the data set with stress ulcer in rat (Rattus norvegicus, po, 7 h), the inhibition in vivo at 50 mg/kg is 34%, the inhibition in vivo at 100 mg/kg worked out at 36% and the inhibition in vivo at 200 mg/kg was determined as 42%.
`CNC(=O)c1cccc(NCC(=O)NCCc2ccc(OC)c(OC)c2)c1` [Compound a]: the inhibition in vivo at 50 mg/kg in the data set with stress ulcer in rat (setting [2]) turned out to be 46%. Further, the inhibition in vivo at 100 mg/kg with stress ulcer in rat (setting [3]) is 60%. The inhibition in vivo at 200 mg/kg with stress ulcer in rat (setting [4]) amounted to 72%.
The like results for `CCNC(=O)c1cccc(NCC(=O)NCCc2ccc(OC)c(OC)c2)c1` [Compound b, 3-((2-((2-(3,4-dimethoxyphenyl)ethyl)amino)-2-oxoethyl)amino)-N-ethylbenzamide] were, in that order, 30%, 53% and 63%.
In the case of `CNC(=O)c1ccc(OC)cc1NCC(=O)NCCc1ccc(OC)c(OC)c1` [Compound c, 2-((2-((2-(3,4-dimethoxyphenyl)ethyl)amino)-2-oxoethyl)amino)-4-methoxy-N-methylbenzamide], the LD50 in “in vivo” was above 2000 mg/kg. In addition, the inhibition in vivo at 50 mg/kg in the data set on stress ulcer in rat (setting [2]) came to 33%. For the same molecule, the inhibition in vivo at 100 mg/kg in the data set with stress ulcer in rat (setting [3]) turned out to be 36%. The inhibition in vivo at 200 mg/kg in the data set with stress ulcer in rat (setting [4]) amounted to 69%.
In the case of `COc1ccc(CCNC(=O)CNc2cccc(C(=O)N(C)C)c2)cc1OC` [Compound e, 3((2-((2-(3,4-Dimethoxyphenyl)ethyl)amino)-2-oxoethyl)amino)-N,N-dimethylenzamide], the inhibition in vivo at 50 mg/kg with stress ulcer in rat (setting [2]) stood at 39%. The inhibition in vivo at 100 mg/kg in the data set on stress ulcer in rat (setting [3]) is 55%. In addition, the inhibition in vivo at 200 mg/kg with stress ulcer in rat (setting [4]) was 64%.
In the same order, the values of `COc1ccc(CCNC(=O)CNc2cccc(C(=O)N3CCOCC3)c2)cc1OC` [Compound f, N(2-(3,4-Dimethoxyphenyl)ethyl)-2-((3-morpholinocarbonylphenyl)amino)acetmide] are 10%, 53% and 86%.
In the same order, the values of `CNC(=O)c1cc(OC)ccc1NCC(=O)NCCc1ccc(OC)c(OC)c1` [Compound g] are 45%, 41% and 65%.
On to `COc1ccc(CCNC(=O)CNc2cccc(C(N)=O)c2)cc1OC.O.O.O` [Control, 2-(3-carbamoylphenylamino)-N-(3,4-dimethoxyphenethyl)acetamide trihydrate], for which the “chemical and physical properties (stability)” value in data set [1] is “stable chemical and physical properties”.
